PubChem BioAssay (NCI)
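Briefly, cells in 96-well plates were exposed to five compound concentrations for 48 h, and endpoints were estimated by linear interpolation. GI50 marks 50% less growth. TGI denotes the concentration required for complete inhibition of growth.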

System: MDA-MB-468 breast
Assay: NCI tumour cell line growth inhibition, 48 h

Row | Structure (SMILES) | GI50 [µM] | TGI [µM]
1 | CN1CCN(c2ccc(-c3cccc(CN4CCOCC4)c3)cc2NC(=O)c2c[nH]c(=O)cc2C(F)(F)F)CC1 | 20.2 | 92.5
2 | O=C(Nc1ccc(N2CCNCC2)cn1)c1[nH]ncc1Nc1ncnc2sccc12 | 1.69 | 3.42
3 | CCCCCCCCCCCCC(NC(C)=O)(C(=O)OCC)C(=O)OCC | 4.67 | 18.6
4 | CCCC(=O)Nc1c(I)cc(I)c(CC(CC)C(=O)O)c1I (configuration not stated) | > 100 | > 100
5 | Cc1ccccc1C[P+](c1ccccc1)(c1ccccc1)c1ccccc1 | 0.265 | 1.16
6 | C[C@@]1(O)CCC[C@H]1n1c(=O)c(C(F)F)cc2cnc(NC3CCN(S(C)(=O)=O)CC3)nc21 | 1.61 | 4.76
7 | Cc1cc(C)c(O)c(CNCCCNCc2cc(C)cc(C)c2O)c1 | 1.69 | 3.24
8 | O=S(=O)(NCCNc1cc(-c2cn(-c3ccccc3)nc2-c2cccc(O)c2)ccn1)c1ccc(Br)cc1 | 2.7 | 7.79
9 | CCCCCCCCCC[N+](C)(C)C | 0.43 | 2.79
10 | COc1c2occc2cc2ccc(=O)oc12 | > 100 | > 100
11 | COc1ccc(-c2cc(-c3ccc(Cl)cc3)nc(SCCCCCCC(=O)NO)n2)cc1 | 1.64 | 7.19
12 | C=C1C(=O)O[C@H]2[C@H]1CC/C(Cn1cc(-c3ccsc3)nn1)=C\CC[C@@]1(C)O[C@@H]21 | 1.28 | 3.56
13 | CC[C@]12C=CCN3CC[C@@]4(c5cc(NC(=O)COc6cc(O)c7c(=O)cc(-c8ccccc8)oc7c6)c(OC)cc5N(C)[C@H]4[C@@](O)(C(=O)OC)[C@@H]1OC(C)=O)[C@@H]32 | 1.52 | 3
14 | CN1CCN(Cc2ccc(NC(=O)c3cccc(C#Cc4c(N)ncc5ccc(F)cc45)c3)cc2C(F)(F)F)CC1 | 0.888 | 1.83
15 | Cc1nc2ccccc2c(/C=C/c2ccccc2)c1C(=O)/C=C/c1ccccc1 | 1.79 | 3.5
16 | N#Cc1ccc(NC(=O)Nc2nc3ccc(OC(F)(F)F)cc3s2)cc1 | 0.46 | 4.84

Row | Structure (SMILES) | GI50 [µM] | TGI [µM]
17 | CCCc1n(Cc2ccc3ccccc3n2)cc[n+]1Cc1ccc2ccccc2c1 | 0.273 | 1.49
18 | COC1C(O)CC(OC2CC(OC3CC(O[C@@H]4C(=O)c5c(cc6cc(OC7CC(OC8CC(O)C(O)C(C)O8)C(O)C(C)O7)c(C)c(O)c6c5O)CC4[C@H](OC)[C@@H](O)C(C)=O)OC(C)C3O)OC(C)C2O)OC1C (some centres not stated) | 0.0256 | 2.65
19 | O=C1CCC(N2C(=O)c3cccc(NCCOCCOCCNC(=O)c4cc5c(o4)C(=O)c4ccccc4C5=O)c3C2=O)C(=O)N1 (configuration not stated) | 1.46 | 3.88
20 | Cc1ccc2c(n1)C(=O)C(Cl)=C(Nc1ccc(C#N)cc1)C2=O | 1.78 | 3.81
21 | COCC(=O)NC/C=C/c1ccc2ncnc(Nc3ccc(Oc4ccc(C)nc4)c(C)c3)c2c1 | 1.96 | 10.3
22 | C#C[C@]1(O)CC[C@H]2[C@@H]3CC=C4c5sc(Nc6ccc(C)cn6)nc5CC[C@]4(C)[C@H]3CC[C@@]21C | 1.07 | 3.13
23 | CCN(CC)CCOc1ccc(Cc2ccccc2)cc1 | 16.2 | 41.2
24 | C=C(C)[C@@H]1CC[C@]2(CN)CC[C@]3(C)[C@H](CC[C@@H]4[C@@]5(C)CCC(N)[C@@](C)(CO)[C@@H]5CC[C@]43C)[C@@H]12 (some centres not stated) | 1.77 | 3.42
25 | NC(Cc1c[nH]c2cc(F)ccc12)C(=O)O (configuration not stated) | 1010 | > 2500
26 | C#CCOc1ccc(-c2csc(NC(=O)C=C)n2)cc1NS(=O)(=O)c1cccc2c(N(C)C)cccc12 | 0.823 | 1.71
27 | COC(=O)[C@H](Cc1cn(C)cn1)NC(=O)[C@@H](NC(=O)Nc1cc(C(F)(F)F)cc(C(F)(F)F)c1)C(C)(C)C | > 10 | > 10
28 | C[C@@H]1OC(=O)NN=C1c1ccc(-c2ccc(F)cc2)c(C(F)(F)F)c1 | 1.74 | 6.61
29 | COC(=O)CCCNC(=O)C(=O)c1c(O)c(O)c(C(C)C)c2cc(C)c(-c3c(C)cc4c(C(C)C)c(O)c(O)c(C(=O)C(=O)NCCCC(=O)OC)c4c3O)c(O)c12 | 0.364 | 2.97
30 | CC(C)=CCc1c(O)c(C(=O)CC(C)C)c(O)c2c(-c3ccccc3)cc(=O)oc12 | 7.74 | 36.2
31 | Clc1ccc(COC(Cn2ccnc2)c2ccc(Cl)cc2Cl)c(Cl)c1 (configuration not stated) | 1.84 | 5.13
